The Kd is the free concentration of one partner at which half of the binding sites on the other are occupied at equilibrium, for simple one-to-one binding. A high value points to lower affinity.

The source of these data is article PMC11862134 (Nature Communications, 2025).

No end group written: not given here.

For one test, the system named is BAM1 and BAM3 receptor. The note with it: upon reaching the leaves, drought stress; cited from earlier work.
For test [1], the target named is GST-tagged TaCLV1-LRR (extracellular domains of TaCLV1, residues 58-668) (wheat (Triticum aestivum L.)). Kind of test: MST.

Consider “CLE25: CLE25 peptide, messenger of water deficiency from roots to leaves (RKVPNGPDPIHN; ends and bridges not checked; UniProt Q8LFL4 58-69, looked up)”, for which, in the test with BAM1 and BAM3 receptor, the “interaction with BAM1 and BAM3 receptor” value is “interacts with and activates BAM1 and BAM3 receptor”.

B1: mature TaCLE24b peptide (peptide)
peptide: RLSPGGSNPQHH
As for B1, the dissociation constant (Kd) in test [1] was determined as 19.4 nM.
